Tests used:
Type in all cases: in vivo
[1] = test system: Housefly [Musca domestica]; test: Housefly insecticidal test (HF); conditions: per 25 female houseflies, 48 hours
[2] = test system: Tobacco Budworm [Heliothis virescens (Fabricius)]; test: Tobacco budworm contact test (TBW-C); conditions: second-instar larvae, 5 days, percent in solution
Description: (§1) The compounds in Tables 1 and 2 above were tested for insecticidal activity using the following testing procedures. LC50 values, based on the results of these tests and calculated according to dosage-mortality curves, are expressed in Table 3.
Tobacco Budworm [Heliothis virescens (Fabricius)]
(a) Contact: Test compounds were diluted in a 50-50 acetonewater solution. Cotton (Gossypium sp.) cotyledons were immersed in the test solutions for 2-3 seconds and placed on a wire screen to dry. The dried leaves were placed in petri dishes containing a moistened piece of filter paper and infested with 5 second-instar tobacco budworm larvae. The dishes were placed in a high humidity chamber for 5 days, and percent mortality of the larvae recorded. Test concentrations ranged from 0.1% downward. The LC-50 values are expressed below in Table 3 under the heading "TBW-C" in terms of percent of the test compound in the solution.

[3] = test system: Tobacco Budworm [Heliothis virescens (Fabricius)] eggs; test: Tobacco budworm egg test (TBW-E); conditions: percent in solution
[4] = test system: Beet Armyworm (Spodoptera exigua); test: Beet armyworm test (BAW); conditions: second-instar larvae, five days, percent in solution
Description: as §1
Beet Armyworm (Spodoptera exigua)
Test compounds were diluted in a 50-50 acetone-water solution. Young leaves of sugar beets (Beta vulgaris) were immersed in the test solutions for 2-3 seconds and placed on a wire screen to dry. The dried leaves were placed in petri dishes containing a moistened filter paper and infested with five second-instar beet armyworm larvae. The dishes were placed in a high humidity chamber. Mortality of the larvae was recorded five days later. Test concentrations ranged from 0.1% downward. The LC-50 values are expressed below in Table 3 under the heading "BAW" in terms of percent of the test compound in solution.

[5] = test system: Cabbage Looper [Trichoplusia ni (Hubner)]; test: Cabbage looper test (CL); conditions: second-instar larvae, 3-5 days, percent in solution
[6] = test system: Aster Leafhopper [Macrosteles fascifrens (Stal)]; test: Aster leafhopper test (LH); conditions: adults/nymphs, 48 hours, percent in solution
[7] = test system: Maize weevil [Sitophilus Zeamais (Motschulsky)]; test: Maize weevil test (MW); conditions: adult weevils, treated corn seeds, 48 hours, percent in solution
Outline: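 Adult weevils (10) were placed with four corn seeds that had been dipped 2-3 s in compound dissolved in 50:50 acetone:water, then dried, and held at about 25° C. Mortality was scored at 48 h. LC50 was taken from dosage-mortality curves and expressed as percent compound in solution, from a 0.01% top concentration.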

Compound | LC50 HF [1] [µg] | LC50 TBW C [2] [%] | LC50 TBW E [3] [%] | LC50 BAW [4] [%] | LC50 CL [5] [%] | LC50 LH [6] [%] | LC50 MW [7] [%]
Cc1ccc(N=C(OCc2cccc(Oc3ccccc3)c2)C(Cl)Cl)cc1 [Compound 139] | 4.2 | 0.005 | 0.05 | 0.007 | 0.015 |  | 
O=[N+]([O-])c1cccc(N=C(OCc2cccc(Oc3ccccc3)c2)C(Cl)Cl)c1 [Compound 174] | 17 |  | > 0.1 | 0.1 | 0.03 |  | 
CC(C)C(=Nc1ccc(F)c(I)c1)OCc1ccc(F)c(Oc2ccc(Cl)cc2)c1 [Compound 326] | 25 | 0.0005 | 0.03 | 0.004 | 0.00015 |  | 
CC(C)C(=Nc1cccc(Cl)c1)OCc1cccc(Oc2ccccc2)c1 [Compound 7] | 8 |  | 0.009 | 0.006 | 0.006 | 0.0002 | 
CC(C)C(=Nc1ccc(Br)cc1)OCc1ccc(F)c(Oc2ccc(F)cc2)c1 [Compound 333] | 15 | 0.00075 | 0.025 | > 0.1 | 0.00024 |  | > 0.01
CC(C)C(=Nc1ccc(F)cc1)OCc1cccc(Oc2ccccc2)c1 [Compound 46] | 7 |  | 0.016 | 0.006 | 0.003 | 0.002 | 
CC(C)C(=Nc1ccc(F)cc1)OCc1ccc(F)c(Oc2ccccc2)c1 [Compound 53] | 2 | 0.0025 | 0.02 | 0.003 | 0.0005 |  | 
CC(C)C(=Nc1ccc2c(c1)OC(C)(C)O2)OCc1ccc(F)c(Oc2ccc(F)cc2)c1 [Compound 283] | 23 | 0.0009 | 0.016 | 0.0013 | 0.00009 |  | > 0.01
CC(C)C(=Nc1ccc(F)c(Cl)c1F)OCc1cccc(Oc2ccccc2)c1 [Compound 332] | 7 | 0.00075 | 0.015 | 0.0012 | 0.00045 |  | 
Cc1c(Cl)cccc1N=C(OCc1cccc(Oc2ccccc2)c1)C(Cl)Cl [Compound 97] | 10 | 0.004 | 0.04 | 0.01 | 0.002 |  | 
CC(C)C(=Nc1ccc(F)c(Cl)c1F)OCc1cccc(Oc2ccc(Cl)cc2)n1 [Compound 500] | 16 | 0.00075 | 0.02 | 0.002 | 0.00009 |  | 
O=[N+]([O-])c1ccc(N=C(OCc2cccc(Oc3ccccc3)c2)C(Cl)Cl)cc1 [Compound 173] | 18 | > 0.1 | > 0.1 | > 0.1 | 0.02 |  | 
Clc1ccccc1N=C(OCc1cccc(Oc2ccccc2)c1)C(Cl)Cl [Compound 34] | > 100 | 0.01 | > 0.1 | 0.015 | 0.015 |  | 
CC(C)C(=Nc1ccc(I)cc1)OCc1ccc(F)c(Oc2ccc(F)cc2)c1 [Compound 335] | 34 | 0.00025 | 0.05 | > 0.1 | 0.00027 |  | > 0.01
CC(C)C(=Nc1ccc2c(c1)OC(F)(F)O2)OCc1cccc(Oc2ccc(Cl)cc2)c1 [Compound 450] | 72 | 0.0001 | 0.015 | 0.005 | 0.00016 |  | 0.01
CC(C)C(=Nc1ccc(F)c(Cl)c1)OCc1cccc(Oc2ccc(Cl)cc2)n1 [Compound 463] | 8 |  | 0.0075 | 0.0024 | 0.00009 | 0.0003 | 0.01
CC(C)C(=Nc1cccc(C(F)(F)F)c1)OCc1cccc(Oc2ccccc2)c1 [Compound 67] | 15 |  | 0.01 | 0.006 | 0.001 | 0.00027 | 
CCC(C)C(=Nc1ccc(F)c(Cl)c1)OCc1cccc(Oc2ccccc2)c1 (stereo not shown) [Compound 122] | 37 |  | 0.05 | 0.01 | 0.0007 | > 0.05 | 
CC(C)C(=Nc1ccc(Br)c(F)c1)OCc1ccc(F)c(Oc2ccc(F)cc2)c1 [Compound 282] | 16 | 0.0007 | 0.02 | 0.0025 | 0.00007 |  | 0.008
CC(C)C(=Nc1ccc(Cl)c(Cl)c1)OCc1cccc(Oc2ccccc2)c1 [Compound 14] | 40 |  |  | 0.005 | 0.004 | 0.001 | 0.01
CC(C)C(=Nc1ccc(Cl)c(Cl)c1)OCc1cccc(Oc2ccc(F)cc2)c1 [Compound 37] | 21 | 0.0005 | 0.014 |  | 0.0004 | 0.002 | 0.009
CC(C)C(=Nc1ccc(Cl)cc1)OCc1ccc(F)c(Oc2ccccc2)c1 [Compound 23] | 5 |  | 0.017 | 0.001 | 0.0005 |  | 
CC(C)C(=Nc1ccc(F)c(Cl)c1)OCc1cccc(Oc2ccc(Br)cc2)c1 [Compound 238] | 25 | 0.0004 | 0.05 |  | 0.0002 | > 0.05 | > 0.01
CC(C)C(=Nc1ccc(Br)cc1)OCc1cccc(Oc2ccc(F)cc2)c1 [Compound 226] | 16 | 0.001 | 0.1 |  | 0.0005 | 0.002 | 0.009
CC(C)C(=Nc1ccc(F)c(Cl)c1)OCc1cccc(Oc2ccc(F)c(F)c2)n1 [Compound 531] | 5 | 0.00037 | > 0.1 |  | > 0.1 | > 0.05 | > 0.01

Reference: patent US5089623A, “Certain imidate insecticides” (Imperial Chemical Industries Plc, priority 1990, dated 1992)
